Data: paper PMC4882560, “Polyketides from the Mangrove-Derived Endophytic Fungus Nectria sp. HN001 and Their α-Glucosidase Inhibitory Activity” (Marine Drugs, 2016)

Biological target: α-Glucosidase from Saccharomyces cerevisiae
Assay: In vitro α-glucosidase inhibitory activity (UV absorbance at 405 nm, p-nitrophenyl glycoside substrate)
Assay type: biochemical
Details: for IC50: mean ± SD from three parallel measurements, phosphate buffer pH 7.0, 37 °C, absorbance at 405 nm, read-out: IC50, inhibitory effects against α-glucosidase; for α-glucosidase inhibitory activity (result in words): compared to positive control acarbose
Experimental: Optical rotations were measured on a Bellingham-Stanley ADP 440+ polarimeter at 25 °C. IR data were recorded on a Nicolet 5DX-FTIR (Thermo Fisher Scientific, Inc., Hudson, NH, USA), in KBr discs. UV data were recorded on a Shimadzu UV-240 spectrophotometer (Shimadzu, Kyoto, Japan). The ^1H NMR (500 MHz), ^13C NMR (125 MHz), and 2D NMR spectra were obtained on a Bruker AVANCE-500 (Bruker BioSpin Corporation, Billerica, MA, USA) using TMS as an internal reference. HRESIMS were acquired on a Thermofisher LTQ Orbitrp Elite LC-MS spectrometer (Thermo Fisher Scientific, Inc., Hudson, NH, USA), and the ESIMS data were measured on a Micro Mass Q-TOF spectrometer (Waters Corporation, Milford, MA, USA). TLC analysis was carried out on silica gel plates (Marine Chemical Ltd., Qingdao, China). RP-C18 silica gel (Fuji, 40–75 μm, Fuji Silysia Chemical Ltd., Kasugai, Japan), Silica gel (200–300 mesh, Marine Chemical Ltd., Qingdao, China), High silica gel (H, Marine Chemical Ltd., Qingdao, China), and Sephadex LH-20 (GE Healthcare Bio-Sciences AB, Stockholm, Sweden) were used for column chromatography (CC).
An assay of α-glucosidase inhibitory activity was performed using a reported method, with slight modifications. All the assays were performed using 0.01 M KH2PO4-K2HPO4 buffers, pH 7.0, and a Bio-Rad iMark microplate reader (Bio-Rad Laboratories, Inc., Kyoto, Japan). Enzyme solution was prepared to give 2.0 Units/mL in 2 mL aliquots. The assay medium contained phosphate buffer, pH 7.0 (130 μL), 10 μL of enzyme solution, 20 μL of DMSO or inhibitor (dissolved in DMSO), and 40 μL of substrate (p-nitrophenyl glycoside, 3 mg/mL). The substrate was added to the assay medium containing enzyme and buffer with inhibitor added after 15 min of incubation time at 37 °C. The activity was determined by measuring the increase in absorbance at 405 nm for a 1 min interval. Calculations were performed according to the equation: η (%) = [(B − S)/B] × 100%
(B stands for the assay medium with DMSO; S stands for the assay medium with inhibitor). All measurements were done in triplicate from two independent experiments. The reported IC50 was the average value of two independent experiments.

Row | IC50 [µM] | α-glucosidase inhibitory activity (result in words) | SMILES
1 | 392.5 ± 1.7 |  | C[C@@H](O)C[C@@H](O)Cc1cc2cc(O)cc(O)c2c(=O)o1 [Compound 5, citreoisocoumarinol]
2 | 343.7 ± 1 |  | C[C@H](O)C[C@@H](O)Cc1cc2cc(O)cc(O)c2c(=O)o1 [Compound 4, 12-epicitreoisocoumarinol]

The remaining lines, values behind:

Row | SMILES | IC50 [µM] | α-glucosidase inhibitory activity (result in words)
3 | Cc1cc(=O)cc(Cc2cc(O)cc(O)c2)o1 [Compound 7, macrocarpon C] | > 900 | did not display inhibitory activity
4 | COC(=O)/C=C/C(C)=C/C=C/C(C)=C\C(C)=C\C(=O)O [Compound 3, 2E, 4Z, 6E, 8E, 10E-12-methoxy-3,5,9-trimethyl-12-oxododeca-2,4,6,8, 10-pentaenoic acid] | 42.3 ± 0.2 | significant inhibitory activity
5 | CC(/C=C/C(=O)O)=C\C=C\C(C)=C\C(C)=C\C(=O)O [Compound 1, 2E, 4E, 6E, 8E, 10E-3,5,9-trimethyldodeca-2,4,6,8, 10-pentaenedioic acid] | 121.8 ± 0.4 | 
6 | COC(=O)/C=C/C(C)=C/C=C/C(C)=C/C(C)=C/C(=O)O [Compound 2, 2E, 4E, 6E, 8E, 10E-12-methoxy-3,5,9-trimethyl-12-oxododeca-2,4,6,8, 10-pentaenoic acid] | 23.5 ± 0.3 | significant inhibitory activity
7 | CC(=O)C[C@@H](O)Cc1cc2cc(O)cc(O)c2c(=O)o1 [Compound 6, citreoisocoumarin] | 538.7 ± 4.3 | 
